According to US11247984B2, “Uracil containing compounds” (CV6 Therapeutics (NI) Limited, priority 2017, dated 2022):

Legend:
[1] = test system: colorectal (HCT116 and SW620) cell line models; assay: MTS growth inhibition assay; type: cell-based; settings: 5-FU between 0 and 100 μmol/L
Method: The Cell Titer AQueous MTS assay (Promega) is carried out according to the manufacturers guidelines. […] The combination effect is determined by the combination index (CI) method utilizing Calcusyn software (Biosoft, Ferguson, Mo.). Fraction affected (FA) is calculated from the percent growth inhibition: FA=[…]. CI values <1, synergism; 1-1.2, additive and >1.2, antagonism.
Test compounds are evaluated for their antitumor activity in colorectal cancer cells using the MTS growth inhibition assay. HCT116 and SW620 cells are exposed to increasing concentrations of each agent for 72 hours and growth inhibition is directly compared to vehicle-treated controls. The NSCLC cell lines A549 and H1299 are exposed to increasing concentrations of each agent for 72 hours and growth inhibition is directly compared to vehicle-treated controls.
MTS growth inhibition assays are performed to evaluate the effectiveness of the test compounds alone and in combination with the fluoropyrimidine thymidylate synthase (TS) inhibitor 5-fluorouracil (5-FU) at inhibiting the growth of colorectal (HCT116 and SW620) cell line models. […] Simultaneous treatment with increasing concentrations of 5-FU and a test compound at fixed concentrations of 25 μmol/L is determined.

[2] = target: T1, recombinant human deoxyuridine nucleotidohydrolase (dUTPase) (Homo sapiens, UniProt P33316); assay: fluorescence-based dUTPase inhibition assay; type: biochemical; settings: for % relative inhibition vs. positive control: mean across three concentrations, typically 100, 50 and 25 μmol/L, compared to in-run positive control
T1 construct: made in house
T1 sequence (P33316 1-164 isoform P33316-2): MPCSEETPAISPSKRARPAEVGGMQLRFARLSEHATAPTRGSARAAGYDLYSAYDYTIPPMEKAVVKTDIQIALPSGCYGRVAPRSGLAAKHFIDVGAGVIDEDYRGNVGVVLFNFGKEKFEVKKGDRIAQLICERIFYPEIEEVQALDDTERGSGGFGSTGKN
Description: Recombinant human deoxyuridine nucleotidohydrolase (dUTPase) is expressed and purified as described in Ladner R D, Carr S A, Huddleston M J, McNulty D E, Caradonna S J. J Biol Chem. 1996 Mar. 29; 271(13):7752-7. All drugs stocks are aliquoted and diluted as appropriate prior to use. The oligonucelotide primer, templates and fluorophore- and quencher-labeled detection probes are synthesized by Integrated DNA Technologies (Coralville, Iowa), subjected to polyacrylamide gel electrophoresis purification and reconstituted in Omnipur sterile nuclease-free water (EMD Chemicals USA, Gibbstown N.J.) at a stock concentration of 100 μmol/L. The two non-emissive (dark) quenching molecules incorporated into the detection probes include the Iowa black fluorescein quencher (IBFQ; absorption max 531 nm) and ZEN (non-abbreviation; absorption max 532 nm). The fluorescent label utilized is 6-FAM (5′-carboxyfluorescein; excitation max.=494 nm, emission max.=520 nm). Probes are further diluted to a working stock of 10 μmol/L and aliquoted to avoid repeated freeze/thaw cycles. AmpliTaq Gold DNA Polymerase, GeneAmp 10×PCR Buffer 2, MgCl2 and MicroAmp Optical 96-well Reaction Plates are purchased from Applied Biosystems (Carlsbad, Calif.). dNTPs are purchased individually at stock concentrations of 100 mmol/L from New England Biolabs at HPLC-certified >99% purity (Ipswich, Mass.).
Reaction mixtures contained primer, probe and template at an equimolar final concentration of 0.4 μmol/L. Magnesium chloride (MgCl2) is included at a final concentration of 2 mmol/L. Non-limiting dNTPs are included in the reaction mix in excess at a final concentration of 100 μmol/L (dUTP/dTTP is excluded). AmpliTaq Gold DNA polymerase is added at 0.875 U/reaction, 2.5 μl of 10×PCR buffer 2 added and nuclease-free ddH2O added to a final reaction volume of 25 μl. For dUTP inhibition analysis, the volume of ddH2O is further modified to accommodate an additional 1 μl of dUTPase (10 ng/μt) and 1 μl of inhibitor or DMSO control. Thermal profiling and fluorescence detection is performed using a customized thermal program on board a Roche Lightcycler LC480 Instrument II. For analysis of dNTPs, the thermal profile consisted of an 8 min 37° C. step followed by a 10 min 95° C. step to ‘hot-start’ the Taq polymerase and a primer extension time of up to 30 min at 60° C. Raw fluorescence spectra for 6-FAM is measured at specified time intervals to follow assay progression on board a Roche LightCycler 480 Software Version 1.5 and exported and analyzed in Microsoft Excel (Microsoft, Redmond Wash.) and Prism (GraphPad Software, La Jolla Calif.). Fluorescence values for blank reactions (limiting dNTP omitted) are subtracted to give normalized fluorescence units (NFU) to account for background fluorescence.
Test compounds are screened in a fluorescence-based assay. The assay employs a DNA polymerase-based approach utilizing an oligonucleotide template with 3 distinct regions: a 3′ primer binding region, a mid-template dUTP/thymidine triphosphate (TTP) detection region and a 5′ 6-[…] (FAM)-labeled probe binding region that incorporates a black hole quenching moiety. During the reaction, the probe and primer hybridize to the oligonucleotide template to form the template:primer:probe complex. When Taq polymerase binds to the primer in the TPP complex and dUTP is present, successful extension of the nascent strand occurs and the inherent 5′ to 3′ exonuclease activity of Taq polymerase cleaves and displaces the 6-FAM-labeled probe in a 5′ to 3′ direction, releasing the 6-FAM fluorophore from its proximity to the […]. This displacement effectively disrupts the Forster resonance energy transfer (FRET) and the resulting fluorescence detected upon excitation is directly proportional to the amount of the dUTP available in the assay for incorporation. […]

[3] = test system: colorectal (HCT116), breast (MCF-7) and non-small cell lung (H1299, A549, H358 and H460) cell line models; assay: colony forming assay; type: cell-based; settings: FUdR between 0.5 and 2.5 μmol/L; all cell lines evaluated
Method: Colony forming assay showing the ability of colon (SW620, HCT116), non-small cell lung (A549, H460, H1299 and H358) and breast (MCF7) cancer cells to survive and proliferate following transient 24 hour exposure to test compounds, FUdR and combinations are determined. Specifically, cells are seeded at densities between 50 and 100 cells/well in 24-well plates. Twenty-four hours later, cells are treated with increasing concentrations of a rtest compound, a fixed dose of FUdR and combinations of these. After 24 hours, drug is removed, cells are rinsed and allowed to outgrow for 10-14 days. At the conclusion of the outgrowth, cells are fixed in 60% ice cold methanol and stained with 0.1% crystal violet, scanned and counted. Data is presented as percentage of untreated controls (mean±SD). Fraction affected and combination indexes are calculated according to the method of Chou and Talalay where <1 is indicative of a synergistic drug interaction.
Colony forming assays are performed to evaluate the effectiveness of test compounds alone and in combination with the fluoropyrimidine thymidylate synthase (TS) inhibitor fluorodeoxyuridine (FUdR) at reducing cancer cell viability in colorectal (HCT116), breast (MCF-7) and non-small cell lung (H1299, A549, H358 and H460) cell line models. […]

Compound: O=c1[nH]cc(F)c(=O)[nH]1 [Example 5-FU, 5-fluorouracil]
- growth inhibition [1]: dose-dependent increases in growth inhibition

Compound: CC(C)[C@@H](NS(=O)(=O)CC/C=C/CN1CCC(=O)NC1=O)c1ccc(F)c(OCC2CC2)c1 [Example 79, (R,E)-N-(1-(3-(cyclopropylmethoxy)-4-fluorophenyl)-2-methylpropyl)-5-(2,4-dioxotetrahydropyrimidin-1(2H)-yl)pent-3-ene-1-sulfonamide]
- % relative inhibition vs. positive control [2]: 145%

Compound: CC(C)[C@@H](NS(=O)(=O)CCCCCN1CCC(=O)NC1=O)c1ccc(F)c(OCC2CC2)c1 [Example 80, (R)—N-(1-(3-(cyclopropylmethoxy)-4-fluorophenyl)-2-methylpropyl)-5-(2,4-dioxotetrahydropyrimidin-1(2H)-yl)pentane-1-sulfonamide]
- % relative inhibition vs. positive control [2]: 103%

Compound: CC(C)COc1cc(C(C)(C)NS(=O)(=O)CC/C=C/CN2CCC(=O)NC2=O)ccc1F [Example 81, (E)-5-(2,4-dioxotetrahydropyrimidin-1(2H)-yl)-N-(2-(4-fluoro-3-isobutoxyphenyl)propan-2-yl)pent-3-ene-1-sulfonamide]
- % relative inhibition vs. positive control [2]: 80%

Compound: C[C@@H](NS(=O)(=O)CCCOCN1CCC(=O)NC1=O)c1cccc(OCC2CC2)c1 [Example 82, (R)—N-(1-(3-(cyclopropylmethoxy)phenyl)ethyl)-3-((2,4-dioxotetrahydropyrimidin-1(2H)-yl)methoxy)propane-1-sulfonamide]
- % relative inhibition vs. positive control [2]: 174%

Compound: CC[C@@H](NS(=O)(=O)CCCOCN1CCC(=O)NC1=O)c1ccc(F)c(OCC2CC2)c1 [Example 83, (R)—N-(1-(3-(cyclopropylmethoxy)-4-fluorophenyl)propyl)-3-((2,4-dioxotetrahydropyrimidin-1(2H)-yl)methoxy)propane-1-sulfonamide]
- % relative inhibition vs. positive control [2]: 166%

Compound: C[C@@H](NS(=O)(=O)CCCCCn1ccc(=O)[nH]c1=O)c1ccc(F)c(OCC2CC2)c1 [Example 84, (R)—N-(1-(3-(cyclopropylmethoxy)-4-fluorophenyl)ethyl)-5-(2,4-dioxo-3,4-dihydropyrimidin-1(2H)-yl)pentane-1-sulfonamide]
- % relative inhibition vs. positive control [2]: 214%
- IC50 ([2]; recombinant dUTPase, 8 min at 37° C.): 0.3 µM

Compound: C[C@H](NS(=O)(=O)CCCCCn1ccc(=O)[nH]c1=O)c1ccc(F)c(OCC2CC2)c1 [Example 86, (S)—N-(1-(3-(cyclopropylmethoxy)-4-fluorophenyl)ethyl)-5-(2,4-dioxo-3,4-dihydropyrimidin-1(2H)-yl)pentane-1-sulfonamide]
- % relative inhibition vs. positive control [2]: 54%

Compound: O=c1[nH]c(=O)n([C@H]2C[C@H](O)[C@@H](CO)O2)cc1F [FUdR, fluorodeoxyuridine]
- colonies formed [3]: dose-dependent decreases in colonies formed
